Measurements reported in ChEMBL document CHEMBL1144049, “Functional assay and structure-activity relationships of new third-generation P-glycoprotein inhibitors” (Bioorg Med Chem, 2008).

Key:
[1] = target: T1, ATP-dependent translocase ABCB1 (Homo sapiens, UniProt P08183); assay: Inhibition of human Pgp in A2780 cells after 30 mins by calcein AM assay; format: cell-based
[2] = target: T1, ATP-dependent translocase ABCB1; assay: Inhibition of human Pgp in A2780 cells after 30 mins by Hoechst 33342 assay; format: cell-based
[3] = target: ATP-dependent translocase ABCB1 (Mus musculus, UniProt P06795); assay: Inhibition of mouse Pgp in EMT6/AR1.0 cells after 1 hr by daunorubicin accumulation assay; format: cell-based
Sequence of ATP-dependent translocase ABCB1 (Mus musculus, UniProt P06795) (P06795 whole entry): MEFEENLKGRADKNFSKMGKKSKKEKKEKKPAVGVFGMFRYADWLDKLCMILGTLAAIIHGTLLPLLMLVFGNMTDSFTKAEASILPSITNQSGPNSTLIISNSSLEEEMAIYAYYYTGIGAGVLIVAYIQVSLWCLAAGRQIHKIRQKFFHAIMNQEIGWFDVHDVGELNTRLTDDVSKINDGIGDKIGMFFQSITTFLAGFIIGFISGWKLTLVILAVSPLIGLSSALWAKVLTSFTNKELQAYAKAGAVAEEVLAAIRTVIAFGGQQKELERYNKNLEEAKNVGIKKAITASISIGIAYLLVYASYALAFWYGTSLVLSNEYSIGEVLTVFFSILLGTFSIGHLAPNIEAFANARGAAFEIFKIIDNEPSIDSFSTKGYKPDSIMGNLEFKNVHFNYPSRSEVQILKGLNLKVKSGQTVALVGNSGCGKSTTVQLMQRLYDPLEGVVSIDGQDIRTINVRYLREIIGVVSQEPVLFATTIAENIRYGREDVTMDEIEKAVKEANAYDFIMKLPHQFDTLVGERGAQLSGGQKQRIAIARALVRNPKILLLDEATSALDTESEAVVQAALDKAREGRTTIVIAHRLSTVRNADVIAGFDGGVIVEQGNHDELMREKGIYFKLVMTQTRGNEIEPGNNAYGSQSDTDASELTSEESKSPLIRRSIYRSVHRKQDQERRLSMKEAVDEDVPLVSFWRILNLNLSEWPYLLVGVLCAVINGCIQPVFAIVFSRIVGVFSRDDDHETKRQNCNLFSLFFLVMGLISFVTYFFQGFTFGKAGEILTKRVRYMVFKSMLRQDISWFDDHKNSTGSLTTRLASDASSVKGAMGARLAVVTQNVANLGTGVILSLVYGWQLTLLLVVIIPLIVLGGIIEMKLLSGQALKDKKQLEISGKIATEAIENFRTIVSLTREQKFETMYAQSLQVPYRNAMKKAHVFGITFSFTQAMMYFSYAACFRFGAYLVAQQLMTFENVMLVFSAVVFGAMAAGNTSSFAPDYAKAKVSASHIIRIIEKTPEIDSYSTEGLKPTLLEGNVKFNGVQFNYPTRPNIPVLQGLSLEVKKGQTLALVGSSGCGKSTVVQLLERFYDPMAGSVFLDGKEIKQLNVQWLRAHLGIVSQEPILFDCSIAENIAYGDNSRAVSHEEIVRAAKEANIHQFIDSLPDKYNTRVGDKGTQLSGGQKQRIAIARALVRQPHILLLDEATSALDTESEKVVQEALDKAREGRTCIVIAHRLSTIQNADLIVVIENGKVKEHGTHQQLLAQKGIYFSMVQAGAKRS

[4] = target: T1, ATP-dependent translocase ABCB1
Description: Inhibition of Pgp by daunorubicin accumulation assay

T1 sequence (P08183 whole entry): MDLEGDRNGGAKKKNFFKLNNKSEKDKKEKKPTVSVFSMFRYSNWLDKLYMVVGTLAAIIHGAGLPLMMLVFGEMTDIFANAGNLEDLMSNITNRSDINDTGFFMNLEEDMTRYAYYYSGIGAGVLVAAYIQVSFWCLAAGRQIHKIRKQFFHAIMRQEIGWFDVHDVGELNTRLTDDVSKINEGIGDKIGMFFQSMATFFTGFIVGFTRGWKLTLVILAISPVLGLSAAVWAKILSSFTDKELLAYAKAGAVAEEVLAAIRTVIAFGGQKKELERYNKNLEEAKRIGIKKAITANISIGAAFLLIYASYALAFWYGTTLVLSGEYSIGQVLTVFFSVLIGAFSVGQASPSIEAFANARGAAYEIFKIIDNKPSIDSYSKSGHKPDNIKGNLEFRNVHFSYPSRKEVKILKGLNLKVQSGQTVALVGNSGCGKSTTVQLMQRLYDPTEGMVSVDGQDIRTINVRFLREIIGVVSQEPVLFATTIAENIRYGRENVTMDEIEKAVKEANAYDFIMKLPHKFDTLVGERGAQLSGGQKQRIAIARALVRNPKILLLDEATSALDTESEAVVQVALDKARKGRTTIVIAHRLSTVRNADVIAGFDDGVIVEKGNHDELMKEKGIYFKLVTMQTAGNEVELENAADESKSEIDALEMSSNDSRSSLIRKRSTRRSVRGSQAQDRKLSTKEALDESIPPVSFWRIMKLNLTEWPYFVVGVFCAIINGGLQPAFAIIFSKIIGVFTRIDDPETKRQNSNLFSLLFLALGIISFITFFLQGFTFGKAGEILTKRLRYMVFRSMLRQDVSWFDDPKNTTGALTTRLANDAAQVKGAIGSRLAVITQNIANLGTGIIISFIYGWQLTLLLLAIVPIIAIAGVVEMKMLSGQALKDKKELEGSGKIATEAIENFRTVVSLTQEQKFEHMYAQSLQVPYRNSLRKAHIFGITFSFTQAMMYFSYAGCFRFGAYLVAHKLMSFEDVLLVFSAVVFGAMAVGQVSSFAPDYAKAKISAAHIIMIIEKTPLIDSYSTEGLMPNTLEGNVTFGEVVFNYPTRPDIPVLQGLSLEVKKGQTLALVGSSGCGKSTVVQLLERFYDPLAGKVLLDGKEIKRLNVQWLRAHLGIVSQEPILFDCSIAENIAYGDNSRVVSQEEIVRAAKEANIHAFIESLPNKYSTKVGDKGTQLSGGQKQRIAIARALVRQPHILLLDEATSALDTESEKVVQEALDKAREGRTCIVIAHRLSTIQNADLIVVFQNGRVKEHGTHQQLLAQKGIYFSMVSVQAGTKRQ

Compound	IC50 [1] [nM]	IC50 [2] [nM]	IC50 [3] [nM]	IC50 [4] [nM]
O=C(Nc1ccc(CCN2CCc3ccccc3C2)cc1)c1ccccc1[N+](=O)[O-]	12300	13500		
COc1cc2c(cc1OC)CN(CCc1ccc(NC(=O)c3ccnc4ccccc34)cc1)CC2	2820	2240		
COc1cc2c(cc1OC)CN(CCc1ccc(NC(=O)c3cnc4ccccc4n3)cc1)CC2	490	209		
COc1cc2c(cc1OC)CN(CCc1ccc(NC(=O)c3ccccc3NC(=O)c3ccc(C)cc3)cc1)CC2	692	525	260	
COc1cc2c(cc1OC)CN(CCc1ccc(NC(=O)c3cnc4ccccc4c3)cc1)CC2	646	145		
COc1cc2c(cc1OC)CN(CCc1ccc(NC(=O)c3cc4ccccc4cn3)cc1)CC2	851	776		
COc1cc2c(cc1OC)CN(CCc1ccc(NC(=O)c3cccc(Br)c3)cc1)CC2	2290	3240		
COc1cc2c(cc1OC)CN(CCc1ccc(NC(=O)c3cccc4ccccc34)cc1)CC2	1410	1860		
COc1cc2c(cc1OC)CN(CCc1ccc(NC(=O)c3ccc4ccccc4c3)cc1)CC2	776	776		
O=C(Nc1ccc(CCN2CCc3ccccc3C2)cc1)c1ccc([N+](=O)[O-])cc1	4470	5010		
COc1cc2c(cc1OC)CN(CCc1ccc(NC(=O)c3ccc(N)cc3)cc1)CC2	4070	7080		
COc1cc2c(cc1OC)CN(CCc1ccc(NC(=O)c3ccccc3NC(=O)c3ccccc3)cc1)CC2	724		300	250
COc1cc2c(cc1OC)CN(CCc1ccc(NC(=O)c3cc(OC)c(OC)cc3NC(=O)c3cnc4ccccc4c3)cc1)CC2		126	64	38
COc1cc2c(cc1OC)CN(CCc1ccc(NC(=O)c3ccccc3Br)cc1)CC2	4270	3470		
COc1cc2c(cc1OC)CN(CCc1ccc(NC(=O)c3ccc4ncccc4c3)cc1)CC2	724	741		
COc1cc2c(cc1OC)CN(CCc1ccc(NC(=O)c3cccnc3)cc1)CC2	4170	3160		
Nc1ccc(C(=O)Nc2ccc(CCN3CCc4ccccc4C3)cc2)cc1	13500	4170		
O=C(Nc1ccccc1C(=O)Nc1ccc(CCN2CCc3ccccc3C2)cc1)c1cnc2ccccc2c1	447		320	
COc1cc2c(cc1OC)CN(CCc1ccc(NC(=O)c3ccccc3N)cc1)CC2	9120	11200		
COc1cc2c(cc1OC)CN(CCc1ccc(NC(=O)c3ccccc3[N+](=O)[O-])cc1)CC2	4790	5500		
COc1cc2c(cc1OC)CN(CCc1ccc(NC(=O)c3ccccc3NC(=O)c3cnc4ccccc4c3)cc1)CC2	240	166	50	87
COc1cc2c(cc1OC)CN(CCc1ccc(NC(=O)c3ccc([N+](=O)[O-])cc3)cc1)CC2	1100	1380		
